Experiment: method code SF-AS, from Woolston, C.; Lee, J.; Swinbourne, F. (1994). Partition coefficients and chromatographic parameters of some substituted 1,3-thiazolidin-4-ones. Ind. J. Chem., Sect. B, 33(6)590-592.
Settings: pH 7.4

Question: Which logD does the source give for `O=C1CS(=O)(=O)C(c2ccccc2)N1c1ccccc1` (stereo not drawn) here?
Answer: 1.23

Experiment: not given
Settings: not given

Question: For `O=C1CSC(c2cccc([N+](=O)[O-])c2)N1c1ccccc1` (stereo not drawn), which logP is on record?
Answer: 1.73

Question: With `O=C1CSC(c2cccc(F)c2)N1c1ccccc1` (stereo not drawn) as the compound, how does the logP read?
Answer: 1.9

Question: Which logP does the source give for `O=C1CSC(c2ccccc2)N1c1ccc(Cl)cc1` (stereo not drawn) here?
Answer: 2.42

Question: With `O=C1CS(=O)C(c2ccccc2)N1c1ccccc1` (stereo not drawn) as the compound, how does the logP read?
Answer: 1.07

Question: With `Cc1cccc(C2SCC(=O)N2c2ccccc2)c1` (stereo not drawn) as the compound, how does the logP read?
Answer: 2.3

Question: For `O=C1CS(=O)(=O)C(c2cccc(Br)c2)N1c1ccccc1` (stereo not drawn), which logP is on record?
Answer: 1.63

Question: With `O=C1CSC(c2ccc(Br)cc2)N1c1ccccc1` (stereo not drawn) as the compound, how does the logP read?
Answer: 2.66

Question: With `COc1ccc(N2C(=O)CS(=O)(=O)C2c2ccccc2)cc1` (stereo not drawn) as the compound, how does the logP read?
Answer: 1.09

Question: Which logP does the source give for `Cc1ccc(C2SCC(=O)N2c2ccccc2)cc1` (stereo not drawn) here?
Answer: 2.48

Question: With `COc1ccc(N2C(=O)CSC2c2ccccc2)cc1` (stereo not drawn) as the compound, how does the logP read?
Answer: 1.92

Question: Which logP does the source give for `COc1cccc(C2SCC(=O)N2c2ccccc2)c1` (stereo not drawn) here?
Answer: 1.96

Question: For `O=C1CS(=O)C(c2ccccc2)N1c1cccc([N+](=O)[O-])c1` (stereo not drawn), which logP is on record?
Answer: 1.09

Question: With `O=C1CSC(c2ccc([N+](=O)[O-])cc2)N1c1ccccc1` (stereo not drawn) as the compound, how does the logP read?
Answer: 1.75

Question: For `O=C1CSC(c2ccc(Cl)cc2)N1c1ccccc1` (stereo not drawn), which logP is on record?
Answer: 2.52

Question: For `O=C1CS(=O)C(c2cccc(Br)c2)N1c1ccccc1` (stereo not drawn), which logP is on record?
Answer: 1.63

Question: Which logP does the source give for `O=C1CSC(c2ccccc2)N1c1ccccc1` (stereo not drawn) here?
Answer: 1.88

Question: For `COc1ccc(C2SCC(=O)N2c2ccccc2)cc1` (stereo not drawn), which logP is on record?
Answer: 1.97

Question: Which logP does the source give for `O=C1CSC(c2ccccc2)N1c1cccc([N+](=O)[O-])c1` (stereo not drawn) here?
Answer: 1.9

Question: Which logP does the source give for `O=C1CSC(c2ccccc2)N1c1cccc(Br)c1` (stereo not drawn) here?
Answer: 2.58

Question: For `O=C1CS(=O)(=O)C(c2ccccc2)N1c1cccc([N+](=O)[O-])c1` (stereo not drawn), which logP is on record?
Answer: 1.09

Question: With `O=C1CSC(c2ccccc2)N1c1ccc(Br)cc1` (stereo not drawn) as the compound, how does the logP read?
Answer: 2.56

Question: For `O=C1CSC(c2ccccc2)N1c1ccc(O)cc1` (stereo not drawn), which logP is on record?
Answer: 1.29

Question: For `O=C1CSC(c2cccc(Cl)c2)N1c1ccccc1` (stereo not drawn), which logP is on record?
Answer: 2.32

Question: Which logP does the source give for `N#Cc1ccc(C2SCC(=O)N2c2ccccc2)cc1` (stereo not drawn) here?
Answer: 1.32

Question: For `Cc1ccc(N2C(=O)CSC2c2ccccc2)cc1` (stereo not drawn), which logP is on record?
Answer: 2.32

Question: Which logP does the source give for `O=C1CSC(c2cccc(Br)c2)N1c1ccccc1` (stereo not drawn) here?
Answer: 2.44

Question: With `COc1ccc(N2C(=O)CS(=O)C2c2ccccc2)cc1` (stereo not drawn) as the compound, how does the logP read?
Answer: 1.07
